Among the data in US20240409532A1, “BIPHENYL SULFONAMIDES AS DUAL ANGIOTENSIN ENDOTHELIN RECEPTOR ANTAGONISTS” (Chongqing Hongyuantang Medicine Co., Ltd., priority 2023, published 2024) are Ki values, retold here.

In this assay the target is T1, ETA receptor (Rattus norvegicus, UniProt P26684).
T1 construct: evaluated in isolated rat aortic ring; from tissue; host or cells: isolated rat aortic ring
T1 sequence (P26684 21-426): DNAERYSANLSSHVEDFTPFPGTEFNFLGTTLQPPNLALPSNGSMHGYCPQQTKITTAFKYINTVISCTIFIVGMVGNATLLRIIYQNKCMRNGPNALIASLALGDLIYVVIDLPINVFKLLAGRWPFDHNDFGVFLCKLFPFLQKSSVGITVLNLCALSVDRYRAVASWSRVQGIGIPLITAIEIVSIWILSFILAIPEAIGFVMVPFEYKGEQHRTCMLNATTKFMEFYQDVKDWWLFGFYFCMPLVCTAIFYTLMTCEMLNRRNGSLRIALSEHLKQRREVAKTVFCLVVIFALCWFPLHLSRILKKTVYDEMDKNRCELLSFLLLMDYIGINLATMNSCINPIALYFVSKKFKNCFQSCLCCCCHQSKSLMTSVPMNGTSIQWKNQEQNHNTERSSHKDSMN
As to the kind of experiment: In vitro evaluation of inhibitory activity against ETA receptor (isolated rat aortic ring, literature procedure). The format is biochemical. Particulars: telmisartan as control. As for the experimental part: The biological activity of compounds was evaluated in isolated rat aortic ring and in systemic arterial pressure (SAP) of anesthetized rat experiments using the literature procedures in Chinese Pharmacological Bulletin 2008, 24 (11): 1422-1426.
Telmisartan, as an AT1 receptor antagonist approved for marketing by the US FDA in 1998, was used as a control to evaluate the inhibitory activity of AT1 and ETA receptors.

Each structure is given as a SMILES string. A value given as a limit tells only on which side of the number the result lay.

By Ki is commonly meant a dissociation constant, usually derived from enzyme kinetics or from competition with a known ligand. Read a high Ki as lower affinity. On to `CCCCc1nc2c(C)cc(-c3nc4ccccc4n3C)cc2n1Cc1ccc(-c2ccccc2S(=O)(=O)Nc2onc(C)c2C)c(COCC)c1` [Compound 2-5, 4′-((2′-butyl-1,7′-dimethyl-1H,3′H-[2,5′-bibenzo[d]imidazol]-3′-yl)methyl)-N-(3,4-dimethylisoxazol-5-yl)-2′-(ethoxymethyl)-[1,1′-biphenyl]-2-sulfonamide], for which the affinity corresponds to a Ki of 9.2 ± 2.3 nM.

Take `CCOCc1cc(Cn2c(CC)nc3c(C)cc(-c4nc5ccccc5n4C)cc32)ccc1-c1ccccc1S(=O)(=O)Nc1noc(C)c1C` [Compound 1-7, N-(4,5-dimethylisoxazol-3-yl)-2′-(ethoxymethyl)-4′-((2′-ethyl-1,7′-dimethyl-1H,3′H-[2,5′-bibenzo[d]imidazol]-3′-yl)methyl)-[1,1′-biphenyl]-2-sulfonamide]: the Ki came out at 13.2 ± 3.3 nM.

`CCCc1nc2c(C)cc(-c3nc4ccccc4n3C)cc2n1Cc1ccc(-c2ccccc2S(=O)(=O)Nc2noc(C)c2C)c(COCC)c1` [Compound 1-10, 4′-((1,7′-dimethyl-2′-propyl-1H,3′H-[2,5′-bibenzo[d]imidazol]-3′-yl)methyl)-N-(4,5-dimethylisoxazol-3-yl)-2′-(ethoxymethyl)-[1,1′-biphenyl]-2-sulfonamide] gave a Ki of 6.8 ± 1.8 nM.

As for `CCOCc1cc(Cn2c(C)nc3c(C)cc(-c4nc5ccccc5n4C)cc32)ccc1-c1ccccc1S(=O)(=O)Nc1noc(C)c1C` [Compound 1-4], the Ki is > 102 nM.

As for `CCCc1nc2c(C)cc(-c3nc4ccccc4n3C)cc2n1Cc1ccc(-c2ccccc2S(=O)(=O)Nc2onc(C)c2C)c(COCC)c1` [Compound 2-3, 4′-((1,7′-dimethyl-2′-propyl-1H,3′H-[2,5′-bibenzo[d]imidazol]-3′-yl)methyl)-N-(3,4-dimethylisoxazol-5-yl)-2′-(ethoxymethyl)-[1,1′-biphenyl]-2-sulfonamide], the affinity, expressed as Ki, was 8.8 ± 2.2 nM.

For `CCCc1nc2c(C)cc(-c3nc4ccccc4n3C)cc2n1Cc1ccc(-c2ccccc2C(=O)O)cc1` [Telmisartan, reference compound], the Ki was > 103 nM.

Regarding `CCCCc1nc2c(C)cc(-c3nc4ccccc4n3C)cc2n1Cc1ccc(-c2ccccc2S(=O)(=O)Nc2noc(C)c2C)c(COCC)c1` [Compound 1-13, 4′-((2′-butyl-1,7′-dimethyl-1H,3′H-[2,5′-bibenzo[d]imidazol]-3′-yl)methyl)-N-(4,5-dimethylisoxazol-3-yl)-2′-(ethoxymethyl)-[1,1′-biphenyl]-2-sulfonamide], the inhibition constant (Ki) worked out at 7.2 ± 2.1 nM.
